# Test results: patent EP0768085A1, “ANTIBACTERIAL AGENT” (DAIICHI PHARMACEUTICAL CO., LTD., priority 1994, dated 1996)
# Assays:
# Type in all cases: cell-based
# [1] = system: Streptococcus aureus (TI-1); assay: Antibacterial activity (IC), agar as in Example 8 (Example 16, Table 49); conditions: 18 h
# Protocol: (§1) The antibacterial action was evaluated by the inhibitory concentration (hereinafter abbreviated as IC) at which propagation of the bacteria cultured at 37°C for 18 hours was inhibited. Inhibition was determined by the turbidity of the medium. The expressions "IC≤100", "≤10", and "≤1" indicate that MIC-equivalent values obtained at the succesive […] dilution of the sample are 100-10 µg/ml, 10-1 µg/ml, and not more than 1 µg/ml, respectively. […] (In the subsequent Examples, the same rule applies correspondingly.) Table 39
# (§2) A suitable amount of a sample was dissolved in dimethylsulfoxide (DMSO), after which the resulting solution was diluted with the same amount of sterilized distilled water to prepare a bulk sample of 1,000 µg/ml. Separately, a bacterial liquid for the test (methicillin-resistant Staphylococcus aureus (MRSA) isolated from humans) which had been cultured in Mueller-Hinton broth (product of DIFCO) was prepared and inoculated to a Mueller-Hinton agar (product of DIFCO) containing the sample so that the final inoculation amount of 10^6 CFU/ml was achieved. The final concentrations of the samples were 100, 10, and 1 µg/ml.
# (§3) After culturing at 37°C for 18 hours, the antibacterial activity was evaluated in terms of IC in a manner similar to that described in Example 4.
# In a manner similar to that described in Example 8, antibacterial activity of the invention compound was determined. The bacterium used for the test was […] aureus (TI-1).
# Pasteurella from fish = assay: Antibacterial activity (IC), agar as in Example 8, media with 1.5% NaCl, 25°C (Example 20, Tables 53-55); conditions: for MIC: Pasteurella piscicida KP94-02
# Protocol: as §1, §2, §3
# (§4) In a manner similar to that described in Example 8, antibacterial activity of a variety of ketonitrile derivatives shown in Tables 53-55 was measured. The bacteria used for the test were Enterococcus and Pasteurella from fish. The culture conditions were such that the media contained 1.5% NaCl, and the culture temperature was 25°C.
# Enterococcus from fish = assay: as above; conditions: for MIC: Enterococcus Seriolicida SE94-002
# Protocol: as §1, §2, §3, §4
# [2] = system: Pasteurella multocida (Kobe-6); assay: Antibacterial activity (IC), agar as in Example 8 (Example 17, Table 50); conditions: 18 h, origin pig
# Protocol: as §1, §2, §3
# In a manner similar to that described in Example 8, antibacterial activity of the invention compound was determined. The bacterium used for the test was Pasteurella Kobe-6 (origin: pig, Pasteurella multocida).
# [3] = system: Staphylococcus aureus (209-P); assay: Antibacterial activity (IC), agar as in Example 8 (Example 15, Table 48); conditions: 18 h
# Protocol: as §1, §2, §3
# The bacterium used for the test was Staphylococcus aureus (209-P).
# [4] = system: methicillin-resistant Staphylococcus aureus (MRSA) from humans; assay: Antibacterial activity (IC), agar as in Example 8 (Example 19, Table 52); conditions: 18 h
# Protocol: as §1, §2, §3
# In a manner similar to that described in Example 8, antibacterial activity of a variety of ketonitrile derivatives shown in Table 52 was measured. The bacterium used for the test was methicillin-resistant Staphylococcus aureus (MRSA) from humans.
# [5] = Enterococcus Seriolicida KG86050
# [6] = Enterococcus Seriolicida MS89060
# [7] = Enterococcus Seriolicida MS89064
# [8] = Enterococcus Seriolicida MS89066
# [9] = Enterococcus Seriolicida MS89068
# [10] = Enterococcus Seriolicida SE94-001
# [11] = Enterococcus Seriolicida SE94-003
# [12] = Enterococcus Seriolicida SE94-004
# [13] = Enterococcus Seriolicida SE94-005
Compound,MIC [1] [µg/mL],MIC (Pasteurella from fish) [µg/mL],IC (Pasteurella from fish; Pasteurella piscicida KP94-04),IC (Pasteurella from fish; Pasteurella piscicida KP94-05),IC (Pasteurella from fish; Pasteurella piscicida KP94-06),IC (Enterococcus from fish; Enterococcus Seriolicida HI),IC (Enterococcus from fish; [5]),IC (Enterococcus from fish; [6]),IC (Enterococcus from fish; [7]),IC (Enterococcus from fish; [8]),IC (Enterococcus from fish; [9]),IC (Enterococcus from fish; [10]),MIC (Enterococcus from fish) [µg/mL],IC (Enterococcus from fish; [11]),IC (Enterococcus from fish; [12]),IC (Enterococcus from fish; [13]),MIC [2] [µg/mL],MIC [3] [µg/mL],MIC ([4]; MRSA strain 891179) [µg/mL],MIC ([4]; MRSA strain 891185) [µg/mL],further results
"CC(Oc1cccc(Oc2ccc(Br)cc2F)c1)C(=O)C(C#N)c1cccc(Br)c1 (stereo not drawn) [Compound No. 111, 4-[3-(4-bromo-2-fluorophenoxy)phenoxy]-2-(3-bromophenyl)-3-oxopentanonitrile]",1 to 10,10 to 100,≤100 (MIC-equivalent values obtained at the succesive 2-fold dilution of the sample are 100-10 µg/ml),≤100 (MIC-equivalent values obtained at the succesive 2-fold dilution of the sample are 100-10 µg/ml),≤100 (MIC-equivalent values obtained at the succesive 2-fold dilution of the sample are 100-10 µg/ml),≤10 (10-1 µg/ml),≤10 (10-1 µg/ml),≤10 (10-1 µg/ml),≤10 (10-1 µg/ml),≤10 (10-1 µg/ml),≤10 (10-1 µg/ml),≤10 (10-1 µg/ml),1 to 10,≤10 (10-1 µg/ml),≤10 (10-1 µg/ml),≤10 (10-1 µg/ml),10 to 100,1 to 10,1 to 10,1 to 10,MIC ([4]; MRSA strain 891187): 1 to 10 µg/mL; MIC ([4]; MRSA strain 891192): 1 to 10 µg/mL; MIC ([4]; MRSA strain 900048): 1 to 10 µg/mL; MIC ([4]; MRSA strain 900056): 1 to 10 µg/mL
CC(Oc1cc(Oc2ccc(C(F)(F)F)cc2Cl)ccc1[N+](=O)[O-])C(=O)C(C#N)C(=O)N1CCCC1 (stereo not drawn) [compound 134],10 to 100,10 to 100,–,–,–,≤100 (MIC-equivalent values obtained at the succesive 2-fold dilution of the sample are 100-10 µg/ml),≤100 (MIC-equivalent values obtained at the succesive 2-fold dilution of the sample are 100-10 µg/ml),≤100 (MIC-equivalent values obtained at the succesive 2-fold dilution of the sample are 100-10 µg/ml),≤100 (MIC-equivalent values obtained at the succesive 2-fold dilution of the sample are 100-10 µg/ml),≤100 (MIC-equivalent values obtained at the succesive 2-fold dilution of the sample are 100-10 µg/ml),≤100 (MIC-equivalent values obtained at the succesive 2-fold dilution of the sample are 100-10 µg/ml),≤100 (MIC-equivalent values obtained at the succesive 2-fold dilution of the sample are 100-10 µg/ml),10 to 100,≤100 (MIC-equivalent values obtained at the succesive 2-fold dilution of the sample are 100-10 µg/ml),≤100 (MIC-equivalent values obtained at the succesive 2-fold dilution of the sample are 100-10 µg/ml),≤100 (MIC-equivalent values obtained at the succesive 2-fold dilution of the sample are 100-10 µg/ml),10 to 100,10 to 100,–,–,–
COc1cc(Oc2ccc(C(F)(F)F)cc2Cl)cc(OC(C)C(=O)C(C#N)c2ccc(Cl)c(Cl)c2)c1 (stereo not drawn) [compound 209],1 to 10,10 to 100,≤100 (MIC-equivalent values obtained at the succesive 2-fold dilution of the sample are 100-10 µg/ml),≤100 (MIC-equivalent values obtained at the succesive 2-fold dilution of the sample are 100-10 µg/ml),≤100 (MIC-equivalent values obtained at the succesive 2-fold dilution of the sample are 100-10 µg/ml),≤10 (10-1 µg/ml),≤10 (10-1 µg/ml),≤10 (10-1 µg/ml),≤10 (10-1 µg/ml),≤10 (10-1 µg/ml),≤10 (10-1 µg/ml),≤10 (10-1 µg/ml),1 to 10,≤10 (10-1 µg/ml),≤10 (10-1 µg/ml),≤10 (10-1 µg/ml),1 to 10,1 to 10,1 to 10,1 to 10,MIC ([4]; MRSA strain 891187): 1 to 10 µg/mL; MIC ([4]; MRSA strain 891192): 1 to 10 µg/mL; MIC ([4]; MRSA strain 900048): 1 to 10 µg/mL; MIC ([4]; MRSA strain 900056): 1 to 10 µg/mL
CC(Oc1cc(Oc2ccc(C(F)(F)F)cc2Cl)cc(Oc2ccc(C(F)(F)F)cc2Cl)c1)C(=O)C(C#N)c1ccc(Cl)c(Cl)c1 (stereo not drawn) [compound 210],1 to 10,10 to 100,≤100 (MIC-equivalent values obtained at the succesive 2-fold dilution of the sample are 100-10 µg/ml),≤100 (MIC-equivalent values obtained at the succesive 2-fold dilution of the sample are 100-10 µg/ml),≤100 (MIC-equivalent values obtained at the succesive 2-fold dilution of the sample are 100-10 µg/ml),≤10 (10-1 µg/ml),≤10 (10-1 µg/ml),≤10 (10-1 µg/ml),≤10 (10-1 µg/ml),≤10 (10-1 µg/ml),≤10 (10-1 µg/ml),≤10 (10-1 µg/ml),1 to 10,≤10 (10-1 µg/ml),≤10 (10-1 µg/ml),≤10 (10-1 µg/ml),10 to 100,1 to 10,1 to 10,1 to 10,MIC ([4]; MRSA strain 891187): 1 to 10 µg/mL; MIC ([4]; MRSA strain 891192): 1 to 10 µg/mL; MIC ([4]; MRSA strain 900048): 1 to 10 µg/mL; MIC ([4]; MRSA strain 900056): 1 to 10 µg/mL
